Data published in PubChem BioAssay AID1963964 (Molecular Pharmacology Branch, DTP, NCI, 2024).

Tested on: 997726-040-R-J2-PDC tumor spheroids, viability
Assay: Anticancer human tumor 997726-040-R-J2-PDC patient-derived squamous cell lung carcinoma cell line growth inhibition [PI3K]
Conditions: spheroids with HUVEC and MSC; for IC50: curve of first compound; for viability, T/C: stronger effect = lower value
How it was run: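 High-throughput combination screen: PI3K inhibitors crossed with targeted small molecules on complex spheroids of tumor cells, HUVEC and MSCs at 37 degrees C, 5% CO2. Top concentration was at or near clinical Cmax (otherwise 10 microM), with half-log decrements.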
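Also: spheroids exposed to compounds for seven days before readout.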

## CC(=O)c1c(C)c2cnc(Nc3ccc(N4CCNCC4)cn3)nc2n(C2CCCC2)c1=O + Cc1nc(NC(=O)N2CCCC2C(N)=O)sc1-c1ccnc(C(C)(C)C(F)(F)F)c1
Second compound 0.0316 µM
  IC50: > 100 nM
Second compound 0.1 µM
  IC50: 58.7 nM
Second compound 0.316 µM
  IC50: 19.7 nM
Second compound 1 µM
  IC50: < 0.316 nM
Second compound 3.16 µM
  IC50: < 0.316 nM
Second compound 10 µM
  IC50: < 0.316 nM
Second compound 0.0316 µM, first compound 0.000316 µM
  viability, T/C: 94.4%
Second compound 0.0316 µM, first compound 0.001 µM
  viability, T/C: 90.6%
Second compound 0.0316 µM, first compound 0.00316 µM
  viability, T/C: 83.3%
Second compound 0.0316 µM, first compound 0.01 µM
  viability, T/C: 72.9%
Second compound 0.0316 µM, first compound 0.0316 µM
  viability, T/C: 75.5%
Second compound 0.0316 µM, first compound 0.1 µM
  viability, T/C: 51.9%
Second compound 0.1 µM, first compound 0.000316 µM
  viability, T/C: 81.5%
Second compound 0.1 µM, first compound 0.001 µM
  viability, T/C: 74.8%
Second compound 0.1 µM, first compound 0.00316 µM
  viability, T/C: 71.9%
Second compound 0.1 µM, first compound 0.01 µM
  viability, T/C: 65.2%
Second compound 0.1 µM, first compound 0.0316 µM
  viability, T/C: 59.5%
Second compound 0.1 µM, first compound 0.1 µM
  viability, T/C: 43.1%
Second compound 0.316 µM, first compound 0.000316 µM
  viability, T/C: 53.4%
Second compound 0.316 µM, first compound 0.001 µM
  viability, T/C: 59%
Second compound 0.316 µM, first compound 0.00316 µM
  viability, T/C: 52.9%
Second compound 0.316 µM, first compound 0.01 µM
  viability, T/C: 55.7%
Second compound 0.316 µM, first compound 0.0316 µM
  viability, T/C: 46.4%
Second compound 0.316 µM, first compound 0.1 µM
  viability, T/C: 34.8%
Second compound 1 µM, first compound 0.000316 µM
  viability, T/C: 41.9%
Second compound 1 µM, first compound 0.001 µM
  viability, T/C: 44.1%
Second compound 1 µM, first compound 0.00316 µM
  viability, T/C: 40.1%
Second compound 1 µM, first compound 0.01 µM
  viability, T/C: 35.5%
Second compound 1 µM, first compound 0.0316 µM
  viability, T/C: 29.1%
Second compound 1 µM, first compound 0.1 µM
  viability, T/C: 28.4%
Second compound 3.16 µM, first compound 0.000316 µM
  viability, T/C: 29.6%
Second compound 3.16 µM, first compound 0.001 µM
  viability, T/C: 30.5%
Second compound 3.16 µM, first compound 0.00316 µM
  viability, T/C: 26.2%
Second compound 3.16 µM, first compound 0.01 µM
  viability, T/C: 27.7%
Second compound 3.16 µM, first compound 0.0316 µM
  viability, T/C: 27.2%
Second compound 3.16 µM, first compound 0.1 µM
  viability, T/C: 18.6%
Second compound 10 µM, first compound 0.000316 µM
  viability, T/C: 19.2%
Second compound 10 µM, first compound 0.001 µM
  viability, T/C: 15.7%
Second compound 10 µM, first compound 0.00316 µM
  viability, T/C: 13.4%
Second compound 10 µM, first compound 0.01 µM
  viability, T/C: 14.9%
Second compound 10 µM, first compound 0.0316 µM
  viability, T/C: 11.8%
Second compound 10 µM, first compound 0.1 µM
  viability, T/C: 10.5%
